Test results taken from paper PMC10708954, “Exploring the Effect of Compound Glycyrrhizin and Silybinin on the Metabolism of Pexidartinib in Rats Based on CYP3A4 and CYP2C9” (Advances in Pharmacological and Pharmaceutical Sciences, 2023).
Where two headings read alike, the source gives them in different places.

Experiments:
CYP2C9 = assay: Western blot of CYP2C9 protein expression in rat liver
Protocol: (§1) The rats in all five groups were gavaged once a day for fourteen consecutive days. Groups E and G were gavaged with 150 mg/kg aqueous solution of silybinin (containing 21 mg/kg silybinin), groups F and H were gavaged with 13.5 mg/kg aqueous solution of compound glycyrrhizin (containing 4.5 mg/kg glycyrrhizin), and from the 15-days onwards, groups G and H were given 40 mg/kg of PXD per day for a total of 7-days, and equal amounts of saline were given to groups E and F. Group D was gavaged with equal amounts of saline until the end of the experiment. After gavage for 21 days, rats in each group were anesthetized with 10% urethane, and their fresh livers were snap-frozen in liquid nitrogen and stored at −80°C for subsequent experiments.
(§2) Fresh livers were removed at −80°C and weighed portions were homogenized in ep tubes with lysis buffer containing 0.1% PMSF. We prepared 12% SDS-PAGE routine gel, then each group took the corresponding protein samples and prestained Marker samples, 80 V constant voltage for 90 min, the voltage was adjusted to 120 V, and electrophoresis was continued for 30 min. […] Imaging was performed using Imgage-ProPlus 6.0 software and quantitative analysis was performed using Image J software.

CYP3A4 = assay: Western blot of CYP3A4 protein expression in rat liver
Protocol: as §1, §2

[1] = Pharmacokinetics of PXD in rat plasma (HPLC-UV) after 14 days pretreatment with saline, silybinin or CG; format: in vivo, rats; conditions: for Cmax / Tmax / half-life / CL/F / Vd/F: rat, plasma, rats, n = 6, mean ± SD; for CL/F: read-out: CLz/F (converted); for Vd/F: read-out: Vz/F
Protocol: Group B was gavaged with silybinin aqueous solution 150 mg/kg (containing silybinin 21 mg/kg), group C was gavaged with compound glycyrrhizin aqueous solution 13.5 mg/kg (containing glycyrrhizin 4.5 mg/kg), and in contrast, group A was gavaged with an equal amount of saline. After 14-days of administration, three groups were given 40 mg/kg PXD. 0.5 mL of blood was taken from the caudal vein at 0.25, 0.50, 1.00, 2.00, 3.00, 4.00, 6.00, 8.00, 12.00, 24.00, and 48.00 h after being gavaged and added to EP tubes containing heparin, followed by centrifugation at 3500 rpm for 15 min, and finally the supernatant was stored at −20°C and stored for measurement.
The apparatus used in the chromatographic analysis of this work was an 1100 series high-performance liquid chromatography (product of Agilent, USA), which mainly included a vacuum degasser, a four-component infusion pump, an automatic sampler, a column temperature box, and a DAD detector. The fundamental steps were as follows. First of all, the chromatographic separation was carried out on a Venusil C18 column (4.6 mm × 250 mm, 5 μm). Subsequently, the analytes were thoroughly separated under the mobile phase water, acetonitrile, and 0.2% TFA (37 : 43 : 20).
After preparatory 2 ml EP tubes, 300 μL of plasma samples and 15 μL of 10 ng/ml of alpelisib working solution were pipetted separately, followed by 300 μL of 10% sodium carbonate solution, mixed well, and then 1.0 ml of ethyl acetate was included to sediment the proteins. The mixture was vortexed for 2.0 min and subsequently centrifuged at 3500 rpm for 20 min at 4°C. At last, 900 μL of the upper organic phase was transferred to a fresh EP tube, blown dry with an air stream at 50°C, and then redissolved with 100 μL of mobile phase, and 20 μL was sampled for the assay.
In the current study, the drug concentration of PXD in rat plasma was plotted versus the time curve as well as all the bar graphs using GraphPad Prism 8.0 software. Then, DAS (Drug And Statistics) 2.0 software (Shanghai University of Traditional Chinese Medicine, China) was employed to get the main pharmacokinetic parameters of the analytes in nonatrial mode. Then, a one-way analysis of variance (ANOVA) was performed using SPSS (statistical product and service solutions) 25.0 software, while finally, an independent samples t-test was applied to the comparison of major pharmacokinetic parameters between the two groups, where Tmax was tested using rank sum test. Statistical significance was indicated by P < 0.05.

[2] = group B (silybinin pretreatment) compared to group A, P < 0.01
[3] = group B (silybinin pretreatment) compared to group A, P < 0.05
[4] = group C (CG pretreatment) compared to group A, P < 0.05
[5] = po, 40 mg/kg, Group A (control: saline 14 days, then single oral 40 mg/kg PXD)
[6] = po, 40 mg/kg, Group B (silybinin aqueous solution 150 mg/kg, containing silybinin 21 mg/kg, 14 days, then single oral 40 mg/kg PXD)
[7] = Group C (compound glycyrrhizin aqueous solution 13.5 mg/kg, containing glycyrrhizin 4.5 mg/kg, 14 days, then single oral 40 mg/kg PXD)

SMILES: FC(F)(F)c1ccc(CNc2ccc(Cc3c[nH]c4ncc(Cl)cc34)cn2)cn1 [PXD, Pexidartinib]
- effect of PXD on the protein expression of CYP2C9 (CYP2C9; rat, in vivo, 40 mg/kg): inducing effect
- effect of PXD on the protein expression of CYP3A4 (CYP3A4; 40 mg/kg PXD per day for 7 days after silybinin or CG): inducing effect
- decrease of Vz/F [1, 2]: 31.78%
- increase of AUC0⟶t [1, 2]: 28.97%
- increase of AUC0⟶∞ [1, 2]: 26.74%
- decrease of CLz/F [1, 3]: 20.69%
- increase of Cmax [1, 3]: 20.72%
- increase of Cmax ([1]; group C (CG pretreatment) compared to group A, P < 0.01): 36.25%
- increase of AUC0⟶t [1, 4]: 20.98%
- increase of AUC0⟶∞ [1, 4]: 21.22%
- Cmax [1, 5]: 10800 ± 1140 ng/mL
- Tmax [1, 5]: 4.33 ± 1.37 h
- half-life [1, 5]: 9.83 ± 3.13 h
- CL/F [1, 5]: 4.83 mL/min/kg
- Vd/F [1, 5]: 4.09 ± 1.16 L/kg
- Cmax [1, 6]: 13000 ± 1160 ng/mL
- Tmax [1, 6]: 4.17 ± 0.98 h
- half-life [1, 6]: 8.49 ± 3.3 h
- CL/F [1, 6]: 3.83 mL/min/kg
- Vd/F [1, 6]: 2.79 ± 1.03 L/kg
- Cmax [1, 7]: 14700 ± 2390 ng/mL
- Tmax [1, 7]: 4.1 ± 1.1 h
- half-life [1, 7]: 5.23 ± 1.13 h
- CL/F [1, 7]: 4.17 mL/min/kg
- Vd/F [1, 7]: 1.81 ± 0.3 L/kg

SMILES: COc1cc(C2Oc3cc([C@H]4Oc5cc(O)cc(O)c5C(=O)[C@@H]4O)ccc3OC2CO)ccc1O (stereo partly drawn) [silybinin, Silybinin]
- protein expression level of CYP2C9 (CYP2C9; rat liver, gavage 21 days, compared with the control group, P < 0.05 and P < 0.01): decreased
- protein expression level of CYP3A4 (CYP3A4; gavage 21 days, compared with the control group, P < 0.05 and P < 0.01): decreased
